The source made the active and inactive calls. The rule behind the calls is not given here.
Key:
Enterococcus faecium = assay: Antibacterial activity against vancomycin resistant Enterococcus faecium ATCC 700221 assessed as inhibition of bacterial growth incubated for 20 to 24 hrs by broth micro dilution method; assay type: functional; settings: time 20-24 hrs
Staphylococcus aureus [1] = assay: Bactericidal activity against Staphylococcus aureus ATCC 29213 assessed as inhibition of bacterial growth incubated for 24 hrs by resazurin dye based microtiter plate assay; assay type: functional
Staphylococcus aureus [2] = assay: Antibacterial activity against methicillin-resistant Staphylococcus aureus ATCC 33592 assessed as inhibition of bacterial growth incubated for 20 to 24 hrs by broth micro dilution method; assay type: functional; settings: time 20-24 hrs
Staphylococcus aureus [3] = assay: Antibacterial activity against methicillin-resistant Staphylococcus aureus ATCC BAA-1720 assessed as inhibition of bacterial growth incubated for 20 to 24 hrs by broth micro dilution method; assay type: functional; settings: time 20-24 hrs
Acinetobacter baumannii = assay: Antibacterial activity against multi-drug resistant Acinetobacter baumannii ATCC 19606 assessed as inhibition of bacterial growth incubated for 20 to 24 hrs by broth micro dilution method; assay type: functional; settings: time 20-24 hrs
Bacillus subtilis [4] = assay: Induction of morphological changes in Bacillus subtilis CMCC (B) 63501 assessed as elongation of bacterial cell at 0.5 times MIC for 4 hrs (reference value: 3 to 5 um) by microscopic analysis; assay type: functional
Staphylococcus aureus [5] = assay: Antibacterial activity against methicillin-resistant Staphylococcus aureus ATCC BAA41 assessed as inhibition of bacterial growth incubated for 24 hrs by checker board assay; assay type: functional
[6] = target: T1, Cell division protein FtsZ (Staphylococcus aureus) (UniProt P0A031); assay: Induction of Staphylococcus aureus FtsZ polymerization expressed in Escherichia coli BL21 (DE3) assessed as increase in absorbance at 2 to 8 ug/ml by microplate reader method; settings: dose 2-8 µg/ml
T1 sequence (whole entry): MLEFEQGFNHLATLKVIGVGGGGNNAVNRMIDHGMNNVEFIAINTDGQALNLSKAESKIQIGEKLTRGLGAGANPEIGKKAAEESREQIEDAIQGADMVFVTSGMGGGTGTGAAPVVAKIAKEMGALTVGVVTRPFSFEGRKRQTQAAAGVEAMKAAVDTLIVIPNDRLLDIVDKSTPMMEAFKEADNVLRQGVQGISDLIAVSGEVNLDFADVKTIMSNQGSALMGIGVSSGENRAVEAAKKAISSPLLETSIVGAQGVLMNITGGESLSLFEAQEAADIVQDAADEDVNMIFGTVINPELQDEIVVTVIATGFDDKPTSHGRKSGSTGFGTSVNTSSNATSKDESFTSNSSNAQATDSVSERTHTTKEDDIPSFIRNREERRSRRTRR

Bacillus subtilis [7] = assay: Bactericidal activity against Bacillus subtilis CMCC (B) 63501 assessed as inhibition of bacterial growth incubated for 24 hrs by resazurin dye based microtiter plate assay; assay type: functional
[8] = test system: Staphylococcus epidermidis; assay: Antibacterial activity against Staphylococcus epidermidis ATCC 12228 assessed as inhibition of bacterial growth incubated for 20 to 24 hrs by broth micro dilution method; assay type: functional; settings: time 20-24 hrs
[9] = target: T1, Cell division protein FtsZ (Staphylococcus aureus); assay: Binding affinity to Staphylococcus aureus FtsZ assessed as decrease in random coil structure at 8 ug/ml incubated for 30 mins by circular dichroism method (reference value: 34.5 %); design: scale not given: the % may be the effect or the level left; settings: dose 8.0 µg/ml
Staphylococcus aureus [10] = assay: Antibacterial activity against Staphylococcus aureus ATCC 29213 assessed as assessed as reduction in viable bacterial count upto 8 times MIC measured after 8 hrs by time-kill kinetics assay; assay type: functional
Staphylococcus aureus [11] = assay: Induction of drug resistance against Staphylococcus aureus ATCC 29213 assessed as fold increase in MIC after 16 passage; assay type: functional

Work on `CC1CCN(c2cc(/C=C/c3ccc(N(C)C)cc3)[n+](C)c3ccccc23)CC1.[I-]` yielded an MIC (Enterococcus faecium) of 1 µg/mL, an MBC (Staphylococcus aureus [1]) of 8 µg/mL and an MIC (Staphylococcus aureus [2]) of 0.5 µg/mL. For the same molecule, the MIC (Staphylococcus aureus [3]) was 1 µg/mL, the MIC (Acinetobacter baumannii) was > 64 µg/mL and the Activity (Bacillus subtilis [4]) was 70 um. For the same molecule, the MIC (Staphylococcus aureus [5]) was 8 µg/mL, the Activity [6] was “Active” and the MBC (Bacillus subtilis [7]) was 4 µg/mL. It also gave an MIC [8] of 0.25 µg/mL, an Activity [9] of 28.4% and an Activity (Staphylococcus aureus [10]) of 1000 CFU/ml. The fold change (FC) (Staphylococcus aureus [11]) was 8.

From ChEMBL document CHEMBL5154863, “Design and synthesis of quinolinium-based derivatives targeting FtsZ for antibacterial evaluation and mechanistic study” (Eur J Med Chem, 2022)
